Read-outs that look alike come from different tables or passages of the source.
Assays:
Assay type in all cases: cell-based
SLC7A3 = biological target: T1, SLC7A3 (Homo sapiens, UniProt Q8WY07); experiment: RESOLUTE assay on SLC7A3
T1 construct: expressed in transfected cells; host or cells: Jump In T-REx HEK293 (general cell-line paragraph)
Experimental: (§1) FLIPR Membrane Potential Blue Dye was used to detect the compound activities for those membrane transporters that are electrogenic or whose activity is associated with changes in membrane potential, as previously described ([Jensen and BräunerOsborne, 2004]). In brief, cells are seeded at cell line-specific density in black clear-bottom poly-D-Lysine-coated 384-well plates (Greiner Bio-One) in DMEM high-glucose medium with 10% FBS, 1% P/S, and 2 mM UltraGlutamine I (25 µL/well). Furthermore, 24 h after seeding, the culture medium is removed, and the cells are loaded with 20 µL/well of 0.5 X FMP Blue Dye in assay buffer (modified Tyrode’s buffer, 130 mM NaCl, 5 mM KCl, 1 mM MgCl2, 2 mM CaCl2, 5 mM NaHCO3, and 20 mM HEPES pH 7.4). The plates are subsequently incubated for at least 30 min at room temperature in the dark. Then, 10 µL/well of test compounds and controls is added at defined concentrations (0.5% DMSO final conc.) in the FLIPR TETRA instrument (Molecular Devices), and emitted fluorescence is recorded using a λexc 510–545-nm/λem 565–625-nm filter. The dose–response curves for the 19 compounds were prepared starting from 3 µM (final top concentration), the half-log serial dilution factor. For data analysis, Genedata Screener 19.0 software was used.
(§2) The robust Z prime factor (RZ’ factor) was calculated with the following formula: RZ^′=1−3∗RSDMAX+RSDMIN/AbsMAX − MIN, where the RZ’ factor is based on the same formula as the Z′ factor ([Zhang et al., 1999]) but standard deviations and means are replaced by the robust standard deviations and medians, respectively. Curve fitting profiles were performed on each dose–response curve with the analyzer module of Genedata Screener 19.0 on % activity.

NHE1 (SLC9A1) = biological target: T2, NHE1 (SLC9A1) (Homo sapiens, UniProt P19634); experiment: BCECF-AM pH recovery assay, MDA-MB-468 breast cancer cells
T2 construct: endogenous in cells; host or cells: MDA-MB-468
T2 sequence (P19634 whole entry): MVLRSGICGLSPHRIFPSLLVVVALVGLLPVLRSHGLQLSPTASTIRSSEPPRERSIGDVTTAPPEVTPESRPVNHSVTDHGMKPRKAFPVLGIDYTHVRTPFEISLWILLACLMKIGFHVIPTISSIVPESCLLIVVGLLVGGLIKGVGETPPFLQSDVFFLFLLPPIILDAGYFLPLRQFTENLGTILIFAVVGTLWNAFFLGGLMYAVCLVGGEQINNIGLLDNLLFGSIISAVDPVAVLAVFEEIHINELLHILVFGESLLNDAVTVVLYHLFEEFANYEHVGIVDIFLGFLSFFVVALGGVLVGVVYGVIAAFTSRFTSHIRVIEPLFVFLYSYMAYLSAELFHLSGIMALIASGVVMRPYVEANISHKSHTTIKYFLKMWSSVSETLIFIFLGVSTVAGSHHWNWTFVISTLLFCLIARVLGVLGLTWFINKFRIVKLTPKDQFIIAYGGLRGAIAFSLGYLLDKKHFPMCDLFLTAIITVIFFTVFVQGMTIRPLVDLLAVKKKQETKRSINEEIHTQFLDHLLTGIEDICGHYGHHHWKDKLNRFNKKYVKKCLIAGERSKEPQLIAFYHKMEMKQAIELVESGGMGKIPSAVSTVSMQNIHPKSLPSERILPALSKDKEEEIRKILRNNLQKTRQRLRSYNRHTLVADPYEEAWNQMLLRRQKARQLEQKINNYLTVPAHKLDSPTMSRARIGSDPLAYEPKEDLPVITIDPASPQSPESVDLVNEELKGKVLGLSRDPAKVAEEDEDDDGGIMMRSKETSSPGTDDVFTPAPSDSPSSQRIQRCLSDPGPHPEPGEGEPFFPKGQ
Experimental: The cells were seeded (6.000 cells/well) in poly-d-lysine-coated 384-well plates (black, transparent bottom) and grown for 24 h at 37°C and 5% CO2. The media was removed, and the cells were washed once in sodium-free loading buffer (115 mM choline chloride, 20 mM NH4Cl, 5 mM KCl, 1 mM CaCl2, 1 mM MgCl2, 20 mM HEPES pH 7.4, and 5 mM glucose) and subsequently incubated for 30–45 min at 37°C in a loading buffer containing 10 µM 2′,7′-Bis(2-carboxyethyl)-5(6)-carboxyfluorescein tetrakis (acetoxymethyl) ester (BCECF-AM). The loading buffer was removed, and the cells were washed twice with NH4Cl-free acidification buffer (133.8 mM choline chloride, 4.7 mM KCl, 1.25 mM CaCl2, 1.25 mM MgCl2, 0.97 mM K2HPO4, 0.23 mM KH2PO4, 5 mM HEPES pH 7.4, and 5 mM glucose) using a plate dispenser (Multidrop Combi+, Thermo Fisher Scientific, US). The cells were incubated 5 min with 15 µL compounds at 2× concentration in acidification buffer. The assay readout was acquired using a plate reader (POLARstar Omega, BMG LABTECH, Germany) set to measure Ex./Em. at 440 nm/520 nm and 485 nm/520 nm over a period of 15 min. A baseline read was recorded before the plate readers automated dispensing of 15 µL recovery buffer (133.8 mM NaCl, 4.7 mM KCl, 1.25 mM CaCl2, 1.25 mM MgCl2, 0.97 mM Na2HPO4, 0.23 mM NaH2PO4, 5 mM HEPES pH 7.4, and 5 mM glucose), which initializes cellular pH recovery. The mean baseline measurement was subtracted from the intensities of each well, and a fluorescence intensity ratio for excitations at 485 nm and 440 nm was calculated. The data were normalized to DMSO (maximum) and no recovery controls (minimum). The data were analyzed using R, and the dr4pl package was used to fit dose–response data to the four-parameter logistic model.

SLC6A9 = biological target: T3, SLC6A9 (Homo sapiens, UniProt P48067); experiment: RESOLUTE assay on SLC6A9
T3 construct: expressed in transfected cells; host or cells: Jump In T-REx HEK293 (general cell-line paragraph)
T3 sequence (P48067 1-706): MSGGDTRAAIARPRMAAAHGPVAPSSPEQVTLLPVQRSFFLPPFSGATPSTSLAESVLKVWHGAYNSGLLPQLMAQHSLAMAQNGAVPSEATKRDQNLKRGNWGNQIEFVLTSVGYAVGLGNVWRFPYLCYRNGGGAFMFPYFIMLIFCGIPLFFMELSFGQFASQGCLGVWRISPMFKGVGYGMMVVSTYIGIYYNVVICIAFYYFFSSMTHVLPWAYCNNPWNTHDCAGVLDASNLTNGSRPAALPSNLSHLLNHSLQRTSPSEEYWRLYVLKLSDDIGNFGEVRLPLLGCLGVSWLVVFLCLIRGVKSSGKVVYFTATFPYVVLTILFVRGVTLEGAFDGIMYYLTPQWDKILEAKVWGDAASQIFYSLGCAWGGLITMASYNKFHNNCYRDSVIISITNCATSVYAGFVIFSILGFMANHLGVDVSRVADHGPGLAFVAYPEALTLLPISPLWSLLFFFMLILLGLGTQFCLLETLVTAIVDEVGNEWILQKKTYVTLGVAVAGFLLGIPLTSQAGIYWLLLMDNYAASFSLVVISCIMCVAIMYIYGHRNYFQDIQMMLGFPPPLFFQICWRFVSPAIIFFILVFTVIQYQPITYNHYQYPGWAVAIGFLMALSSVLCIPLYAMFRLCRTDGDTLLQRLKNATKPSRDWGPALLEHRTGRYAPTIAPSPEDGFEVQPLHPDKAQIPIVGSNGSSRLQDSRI
Experimental: as §1, §2

[1] = target SLC7A3, Flipr Membrane Potential-Blue-Dye, read-out: pIC50 (act) (converted)
[2] = BCECF, read-out: pIC50 (act), SLC9A1 (converted)
[3] = target SLC6A9, Flipr Membrane Potential-Blue-Dye, read-out: pIC50 (act) (converted)
[4] = Flipr Membrane Potential-Blue-Dye, read-out: pIC50 (act), SLC7A3 (converted)

T1 sequence (Q8WY07 whole entry): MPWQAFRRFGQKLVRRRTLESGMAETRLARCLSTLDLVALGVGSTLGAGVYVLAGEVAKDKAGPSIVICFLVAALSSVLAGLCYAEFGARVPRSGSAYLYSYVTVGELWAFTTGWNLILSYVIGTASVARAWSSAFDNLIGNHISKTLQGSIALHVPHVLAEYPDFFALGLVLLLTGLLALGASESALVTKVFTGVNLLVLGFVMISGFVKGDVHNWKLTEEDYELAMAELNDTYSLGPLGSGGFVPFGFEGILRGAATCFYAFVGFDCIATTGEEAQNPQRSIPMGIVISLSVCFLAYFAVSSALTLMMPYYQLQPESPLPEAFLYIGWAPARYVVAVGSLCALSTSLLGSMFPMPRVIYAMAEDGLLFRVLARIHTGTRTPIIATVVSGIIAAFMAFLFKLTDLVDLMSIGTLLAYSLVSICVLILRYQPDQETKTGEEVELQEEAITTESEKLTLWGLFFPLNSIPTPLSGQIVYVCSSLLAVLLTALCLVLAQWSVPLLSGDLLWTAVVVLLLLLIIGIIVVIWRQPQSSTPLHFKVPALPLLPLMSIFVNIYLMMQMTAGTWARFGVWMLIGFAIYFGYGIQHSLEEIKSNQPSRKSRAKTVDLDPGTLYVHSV

| SMILES | IC50 (SLC7A3; [1]) [µM] | IC50 (NHE1 (SLC9A1); [2]) [µM] | IC50 (SLC6A9; [3]) [µM] | IC50 (SLC7A3; [4]) [µM] | IC50 (SLC7A3) [µM] | IC50 (NHE1 (SLC9A1)) [µM] | IC50 (SLC6A9) [µM] |
| --- | --- | --- | --- | --- | --- | --- | --- |
| CC(C)[C@H]1CN[C@H](C(=O)O)[C@H]1CC(=O)O [Dihydrokainate] | > 3.16 | > 10 | > 3.16 | – | – | – | – |
| CCOC(=O)N1CCC(=C2c3ccc(Cl)cc3CCc3cccnc32)CC1 [Loratadine] | > 3.16 | > 10 | > 3.16 | – | – | – | – |
| NC(C(=O)O)C(OCc1ccccc1)C(=O)O (stereo not drawn) [Threo-beta-benzyloxyaspartic acid, Threo-beta-Benzyloxyaspartic acid] | – | > 10 | > 3.16 | > 3.16 | – | – | – |
| CCNC(=O)/C=C/c1cccc(Br)c1 [Cinromide] | > 3.16 | > 10 | > 3.16 | – | – | – | – |
| COCCOc1cc(CC2CCN(CCc3ccc4c(c3)C(=O)CCO4)CC2)ccc1Br [DSP-1053] | > 3.16 | > 10 | > 3.16 | – | – | – | – |
| N#Cc1ccc(Nc2cnccc2SCc2ccccc2C(=O)O)c2ccccc12 [KPH2f] | > 3.16 | > 10 | > 3.16 | – | – | – | – |
| C=C(C)[C@H]1CN[C@H](C(=O)O)[C@H]1CC(=O)O [Kainic acid] | – | – | – | – | > 3.16 | > 10 | > 3.16 |
| Nc1nc2ccc(OC(F)(F)F)cc2s1 [Riluzole] | – | > 10 | > 3.16 | > 3.16 | – | – | – |
| Cc1c(NC(=O)c2cc(C(N)=O)nc3cc(F)ccc23)c(C(F)(F)F)nn1Cc1ccc(C#N)cc1 [BAY-876] | > 3.16 | > 10 | > 3.16 | – | – | – | – |
| Cc1ccsc1C(=CCCN1CCC[C@@H](C(=O)O)C1)c1sccc1C [Tiagabine] | – | > 10 | > 3.16 | > 3.16 | – | – | – |
| CNCCCN1c2ccccc2CCc2ccccc21 [Desipramine] | > 3.16 | > 10 | > 3.16 | – | – | – | – |
| CC1C(C#N)=C(N)OC2=C1C(=O)CC(c1cccc3ccccc13)C2 (stereo not drawn) [UCPH-102] | – | > 10 | > 3.16 | > 3.16 | – | – | – |
| N[C@H](C(=O)O)[C@H](OCc1cccc(NC(=O)c2ccc(C(F)(F)F)cc2)c1)C(=O)O [TFB-TBOA] | – | > 10 | > 3.16 | > 3.16 | – | – | – |
| N[C@@H](CC(=O)Nc1ccc(Oc2cc(F)c(F)cc2Br)cc1)C(=O)O [WAY-213613] | – | > 10 | > 3.16 | > 3.16 | – | – | – |
| O=S(=O)(O)c1cc(N=C=S)ccc1/C=C/c1ccc(N=C=S)cc1S(=O)(=O)O [DIDS] | > 3.16 | > 10 | > 3.16 | – | – | – | – |
| Fc1ccc(C(OCCN2CCN(CCCc3ccccc3)CC2)c2ccc(F)cc2)cc1 [Vanoxerine (GBR12909), Vanoxerine] | – | > 10 | > 3.16 | > 3.16 | – | – | – |
| COc1ccc(C2C(C#N)=C(N)OC3=C2C(=O)CC(c2cccc4ccccc24)C3)cc1 (stereo not drawn) [UCPH-101] | – | > 10 | > 3.16 | > 3.16 | – | – | – |
| CN1C2CCC1CC(OC(c1ccccc1)c1ccccc1)C2 (stereo not drawn) [Benzotropine] | > 3.16 | > 10 | > 3.16 | – | – | – | – |
